The values that follow come from US20120058997A1, “IMIDAZO[1,2-B]PYRIDAZINE AND PYRAZOLO[1,5-A]PYRIMIDINE DERIVATIVES AND THEIR USE AS PROTEIN KINASE INHIBITORS” (SuperGen, Inc., priority 2006, published 2012).

Values joined by “and” are separate entries in the source; they are usually repeats but may differ in a detail not shown here. Equal entries are not always repeated. Where two headings read alike, the source gives them in different places.

One test addresses Pim-1 kinase (Homo sapiens, UniProt P11309). Kind of test: Promega Kinase-Glo Pim-1 kinase inhibition assay.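 Further: in vitro Pim-1 reaction run 2 h at 30 °C, then leftover ATP measured by luciferase luminescence, where signal falls as kinase activity rises.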 It is filed as biochemical. Conditions: Table VIII (results), read-out: IC50(Kinase). (Kinase-Glo reads ATP consumption through a luciferase reaction.)
The subject of test [1] is phospho-Bad (S112) in MV-4-11 cells. The test can be described thus: phospho-Bad (S112) Western blot in MV-4-11 cells. It is filed as cell-based. The note with it: Homo sapiens, MV4-11, 1 hr treatment, HCl salts, read-out: EC50 on phosphorylation of Bad (S112). The source says: One illustrative manner to determine the effect of Pim-1 inhibitors on the activity of the Pim-1 kinase is to measure the phosphorylation levels of the protein Bad at serine residue 112 (S112) (phospho-Bad or pBad). Pim-1 is known to cause the phosphorylation of Bad at S112 in order to inactivate the protein and inhibit its association with anti-apoptotic Bcl-2 family members, thereby allowing these Bcl-2 family members to further inhibit apoptotic signals.
Briefly, MV-4-11 (biphenotypic B myelomonocytic leukemia) cells were plated into T25 flasks in serum free media (SFM) at 1.5×10^5 cells/ml and allowed to grow for 24 hrs. After 24 hrs Pim-1 inhibitors at 10, 5, 1, 0.5, 0.1, or 0.01 μM concentrations were added to individual flasks. Treatment with the Pim-1 inhibitors continued for a duration of 1 hr. Cells were harvested after the 1 hr treatment and cell lysates were made from each sample. Equal amounts of total protein from the lysates were loaded onto a 10% Tris-glycine gel (Invitrogen) for SDS-PAGE analysis. […] In order to calculate the EC50 of inhibitors on phosphorylation of Bad (S112), the levels of total Bad protein were determined. […] Densitometry was used to quantitate the levels of each band on the Western blots and used to determine the EC50 of the Pim-1 inhibitors to alter the phospho-Bad protein levels.
A general note: A western blot detects proteins with antibodies after separation by electrophoresis.

The next test deals with K562 Cells. Kind of test: Cell growth inhibition, Cell-Titer-Glo, 96 hours. It is filed as cell-based. Conditions: read-out: IC50 (K562).
The target of another test is Able (Homo sapiens, UniProt P00519). Kind of test: Radiometric kinase panel selectivity assay. It is filed as biochemical. Also noted: dose or concentration left out as unconfirmed.
Sequence of Able (P00519 whole entry): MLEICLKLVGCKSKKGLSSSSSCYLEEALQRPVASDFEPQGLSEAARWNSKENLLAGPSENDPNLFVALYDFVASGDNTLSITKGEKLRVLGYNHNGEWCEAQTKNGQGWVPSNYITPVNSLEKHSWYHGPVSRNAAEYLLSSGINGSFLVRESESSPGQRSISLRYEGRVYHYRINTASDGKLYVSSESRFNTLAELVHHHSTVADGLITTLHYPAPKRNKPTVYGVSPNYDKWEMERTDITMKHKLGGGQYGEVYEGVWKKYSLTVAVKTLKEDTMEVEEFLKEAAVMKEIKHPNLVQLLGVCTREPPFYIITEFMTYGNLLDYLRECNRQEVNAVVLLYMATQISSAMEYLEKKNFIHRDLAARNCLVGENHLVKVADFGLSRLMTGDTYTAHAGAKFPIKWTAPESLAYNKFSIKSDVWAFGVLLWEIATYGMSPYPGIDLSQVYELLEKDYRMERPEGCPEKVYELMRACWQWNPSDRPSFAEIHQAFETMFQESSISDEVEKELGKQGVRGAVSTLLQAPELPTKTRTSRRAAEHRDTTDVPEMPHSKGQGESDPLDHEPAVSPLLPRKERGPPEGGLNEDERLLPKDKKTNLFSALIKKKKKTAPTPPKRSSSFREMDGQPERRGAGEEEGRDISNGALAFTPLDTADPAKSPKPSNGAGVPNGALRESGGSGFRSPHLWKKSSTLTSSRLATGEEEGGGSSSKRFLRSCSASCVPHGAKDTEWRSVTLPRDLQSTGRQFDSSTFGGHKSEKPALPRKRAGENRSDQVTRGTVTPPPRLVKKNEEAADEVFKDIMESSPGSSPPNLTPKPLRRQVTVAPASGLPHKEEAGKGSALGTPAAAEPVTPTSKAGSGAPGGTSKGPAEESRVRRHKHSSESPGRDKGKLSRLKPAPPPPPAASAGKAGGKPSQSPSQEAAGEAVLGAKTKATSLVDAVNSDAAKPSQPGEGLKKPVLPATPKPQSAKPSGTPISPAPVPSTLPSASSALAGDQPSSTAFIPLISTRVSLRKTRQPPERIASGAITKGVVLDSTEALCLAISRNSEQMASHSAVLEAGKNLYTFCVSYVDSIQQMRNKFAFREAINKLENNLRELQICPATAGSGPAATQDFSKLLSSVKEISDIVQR
The target of another test is Plk3 (Homo sapiens, UniProt Q9H4B4). The test can be described thus: Radiometric kinase panel selectivity assay. It is filed as biochemical. Also noted: dose or concentration left out as unconfirmed.
In a further test the target is c-Kit (Homo sapiens, UniProt P10721). The test can be described thus: Radiometric kinase panel selectivity assay. It is filed as biochemical. Also noted: dose or concentration left out as unconfirmed.
Sequence of c-Kit (P10721 26-976): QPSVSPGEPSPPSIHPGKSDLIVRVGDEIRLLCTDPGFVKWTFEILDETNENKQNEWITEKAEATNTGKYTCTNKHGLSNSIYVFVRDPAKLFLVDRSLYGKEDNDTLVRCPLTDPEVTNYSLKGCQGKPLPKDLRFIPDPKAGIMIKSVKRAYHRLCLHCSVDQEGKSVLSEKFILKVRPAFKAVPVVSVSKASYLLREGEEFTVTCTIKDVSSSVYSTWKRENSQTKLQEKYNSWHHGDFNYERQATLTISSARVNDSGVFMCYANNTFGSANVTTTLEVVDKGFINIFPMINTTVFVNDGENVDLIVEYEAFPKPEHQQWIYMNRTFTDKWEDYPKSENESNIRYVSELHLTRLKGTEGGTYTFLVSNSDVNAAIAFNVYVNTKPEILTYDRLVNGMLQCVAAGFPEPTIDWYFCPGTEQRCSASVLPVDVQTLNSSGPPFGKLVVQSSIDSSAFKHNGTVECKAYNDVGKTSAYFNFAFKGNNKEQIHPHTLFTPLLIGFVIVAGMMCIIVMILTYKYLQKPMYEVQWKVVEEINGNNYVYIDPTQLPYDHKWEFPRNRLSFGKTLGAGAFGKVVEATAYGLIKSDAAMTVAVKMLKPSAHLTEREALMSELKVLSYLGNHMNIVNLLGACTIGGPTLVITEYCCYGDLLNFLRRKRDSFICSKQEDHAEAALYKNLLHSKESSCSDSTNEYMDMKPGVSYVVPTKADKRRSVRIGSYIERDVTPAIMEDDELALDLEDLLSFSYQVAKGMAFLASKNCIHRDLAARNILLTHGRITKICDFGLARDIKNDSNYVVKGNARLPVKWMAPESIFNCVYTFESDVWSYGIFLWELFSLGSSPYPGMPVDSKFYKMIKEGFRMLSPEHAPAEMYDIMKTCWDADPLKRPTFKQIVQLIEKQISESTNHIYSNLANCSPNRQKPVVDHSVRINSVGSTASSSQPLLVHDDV
The target of another test is CDK1 (Homo sapiens, UniProt P06493). The test can be described thus: Radiometric kinase panel selectivity assay. It is filed as biochemical. Also noted: dose or concentration left out as unconfirmed.
The next test concerns the target Jak2 (Homo sapiens, UniProt O60674). Kind of test: Radiometric kinase panel selectivity assay. It is filed as biochemical. Also noted: dose or concentration left out as unconfirmed.
In the next test the test system is PC-3 Cells. Kind of test: Cell growth inhibition, Cell-Titer-Glo, 96 hours. It is filed as cell-based. The note with it: Homo sapiens, Table IX (results), read-out: IC50 (PC-3).
In the next test the target is EGFR (Homo sapiens, UniProt P00533). The test can be described thus: Radiometric kinase panel selectivity assay. Also on record: dose or concentration left out as unconfirmed. It is filed as biochemical.
Sequence of EGFR (P00533 25-1210, species assumed): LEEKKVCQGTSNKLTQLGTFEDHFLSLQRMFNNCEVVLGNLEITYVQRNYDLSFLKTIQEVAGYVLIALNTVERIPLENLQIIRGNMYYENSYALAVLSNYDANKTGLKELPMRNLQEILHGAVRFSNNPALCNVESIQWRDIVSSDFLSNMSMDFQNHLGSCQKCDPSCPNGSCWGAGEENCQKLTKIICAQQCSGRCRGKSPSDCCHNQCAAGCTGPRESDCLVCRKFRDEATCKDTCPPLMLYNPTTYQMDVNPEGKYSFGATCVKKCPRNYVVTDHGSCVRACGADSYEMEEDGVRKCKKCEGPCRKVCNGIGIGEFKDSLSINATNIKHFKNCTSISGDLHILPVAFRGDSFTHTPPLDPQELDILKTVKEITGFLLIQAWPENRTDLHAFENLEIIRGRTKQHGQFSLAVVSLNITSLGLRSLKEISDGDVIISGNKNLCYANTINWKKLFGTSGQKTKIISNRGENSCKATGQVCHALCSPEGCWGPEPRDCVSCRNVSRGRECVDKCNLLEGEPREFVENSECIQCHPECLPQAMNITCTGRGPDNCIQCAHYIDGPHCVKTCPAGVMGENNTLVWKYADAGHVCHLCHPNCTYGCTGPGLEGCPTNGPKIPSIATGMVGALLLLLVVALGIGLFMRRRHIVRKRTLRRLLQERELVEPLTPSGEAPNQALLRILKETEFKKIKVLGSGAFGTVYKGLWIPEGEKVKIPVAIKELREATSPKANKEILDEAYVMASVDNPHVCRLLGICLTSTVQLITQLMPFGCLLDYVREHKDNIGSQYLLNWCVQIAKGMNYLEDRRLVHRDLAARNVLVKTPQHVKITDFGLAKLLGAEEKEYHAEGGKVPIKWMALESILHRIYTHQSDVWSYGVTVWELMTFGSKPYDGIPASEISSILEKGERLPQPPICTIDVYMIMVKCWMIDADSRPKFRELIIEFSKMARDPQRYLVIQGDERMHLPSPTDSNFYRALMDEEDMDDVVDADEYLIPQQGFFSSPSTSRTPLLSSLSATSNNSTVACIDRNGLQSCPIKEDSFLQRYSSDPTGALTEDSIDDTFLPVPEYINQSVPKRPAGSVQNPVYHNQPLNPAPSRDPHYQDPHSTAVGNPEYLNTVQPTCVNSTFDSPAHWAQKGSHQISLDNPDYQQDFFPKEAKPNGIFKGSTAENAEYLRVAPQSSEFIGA
The target in a further test is CDK2 (Homo sapiens, UniProt P24941). Kind of test: Radiometric kinase panel selectivity assay. Also noted: dose or concentration left out as unconfirmed. It is filed as biochemical.
In a further test the target is T1, Aurora-A (Homo sapiens, UniProt O14965).
T1 sequence (O14965 1-403): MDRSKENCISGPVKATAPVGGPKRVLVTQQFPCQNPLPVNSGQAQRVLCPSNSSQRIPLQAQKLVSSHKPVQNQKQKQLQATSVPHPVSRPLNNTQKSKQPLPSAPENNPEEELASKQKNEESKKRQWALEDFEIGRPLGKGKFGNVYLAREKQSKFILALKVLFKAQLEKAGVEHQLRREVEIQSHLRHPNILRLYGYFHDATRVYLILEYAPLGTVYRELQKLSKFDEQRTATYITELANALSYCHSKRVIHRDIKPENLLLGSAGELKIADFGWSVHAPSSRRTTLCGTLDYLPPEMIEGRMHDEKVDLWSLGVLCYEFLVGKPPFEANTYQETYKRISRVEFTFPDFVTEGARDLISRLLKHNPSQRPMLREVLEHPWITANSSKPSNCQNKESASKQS
Kind of test: Radiometric kinase panel selectivity assay. It is filed as biochemical. Also on record: dose or concentration left out as unconfirmed.

A further test has as its target T2, Nek2 (Homo sapiens, UniProt P51955).
T2 sequence (P51955 1-445): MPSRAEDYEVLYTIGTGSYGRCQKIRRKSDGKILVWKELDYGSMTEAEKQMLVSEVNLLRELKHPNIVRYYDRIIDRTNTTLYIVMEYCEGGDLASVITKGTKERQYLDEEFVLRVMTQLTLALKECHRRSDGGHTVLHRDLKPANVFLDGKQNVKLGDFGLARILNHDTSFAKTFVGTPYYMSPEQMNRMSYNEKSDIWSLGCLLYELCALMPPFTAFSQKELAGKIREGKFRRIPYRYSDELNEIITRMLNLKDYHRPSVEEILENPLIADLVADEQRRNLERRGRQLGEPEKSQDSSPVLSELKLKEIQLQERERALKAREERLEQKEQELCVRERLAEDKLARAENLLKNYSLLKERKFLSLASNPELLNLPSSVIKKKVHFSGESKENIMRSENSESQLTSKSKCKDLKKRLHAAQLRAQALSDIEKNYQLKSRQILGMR
The test can be described thus: Radiometric kinase panel selectivity assay. It is filed as biochemical. Also noted: dose or concentration left out as unconfirmed.

[2] abbreviates: Homo sapiens, K562, Table IX (results).
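Wherever IC50 (K562) is given: luminescent ATP signal as an index of viable cell number, drug-treated versus cells given an equal volume of DMSO vehicle.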
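Wherever IC50 (PC-3) is given: luciferase luminescence reflecting cellular ATP, used as a proxy for cell number, with compound-treated cells compared against DMSO vehicle control wells.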

Sequence of Pim-1 kinase (P11309 whole entry): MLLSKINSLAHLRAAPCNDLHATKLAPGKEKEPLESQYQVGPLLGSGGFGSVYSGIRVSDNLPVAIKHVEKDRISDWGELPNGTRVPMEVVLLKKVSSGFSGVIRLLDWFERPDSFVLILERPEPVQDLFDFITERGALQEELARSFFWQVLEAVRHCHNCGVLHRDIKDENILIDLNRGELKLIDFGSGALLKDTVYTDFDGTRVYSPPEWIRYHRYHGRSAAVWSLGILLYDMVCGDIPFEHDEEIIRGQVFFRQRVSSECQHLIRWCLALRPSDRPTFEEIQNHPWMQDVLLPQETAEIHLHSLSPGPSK
Sequence of Jak2 (O60674 whole entry, species assumed): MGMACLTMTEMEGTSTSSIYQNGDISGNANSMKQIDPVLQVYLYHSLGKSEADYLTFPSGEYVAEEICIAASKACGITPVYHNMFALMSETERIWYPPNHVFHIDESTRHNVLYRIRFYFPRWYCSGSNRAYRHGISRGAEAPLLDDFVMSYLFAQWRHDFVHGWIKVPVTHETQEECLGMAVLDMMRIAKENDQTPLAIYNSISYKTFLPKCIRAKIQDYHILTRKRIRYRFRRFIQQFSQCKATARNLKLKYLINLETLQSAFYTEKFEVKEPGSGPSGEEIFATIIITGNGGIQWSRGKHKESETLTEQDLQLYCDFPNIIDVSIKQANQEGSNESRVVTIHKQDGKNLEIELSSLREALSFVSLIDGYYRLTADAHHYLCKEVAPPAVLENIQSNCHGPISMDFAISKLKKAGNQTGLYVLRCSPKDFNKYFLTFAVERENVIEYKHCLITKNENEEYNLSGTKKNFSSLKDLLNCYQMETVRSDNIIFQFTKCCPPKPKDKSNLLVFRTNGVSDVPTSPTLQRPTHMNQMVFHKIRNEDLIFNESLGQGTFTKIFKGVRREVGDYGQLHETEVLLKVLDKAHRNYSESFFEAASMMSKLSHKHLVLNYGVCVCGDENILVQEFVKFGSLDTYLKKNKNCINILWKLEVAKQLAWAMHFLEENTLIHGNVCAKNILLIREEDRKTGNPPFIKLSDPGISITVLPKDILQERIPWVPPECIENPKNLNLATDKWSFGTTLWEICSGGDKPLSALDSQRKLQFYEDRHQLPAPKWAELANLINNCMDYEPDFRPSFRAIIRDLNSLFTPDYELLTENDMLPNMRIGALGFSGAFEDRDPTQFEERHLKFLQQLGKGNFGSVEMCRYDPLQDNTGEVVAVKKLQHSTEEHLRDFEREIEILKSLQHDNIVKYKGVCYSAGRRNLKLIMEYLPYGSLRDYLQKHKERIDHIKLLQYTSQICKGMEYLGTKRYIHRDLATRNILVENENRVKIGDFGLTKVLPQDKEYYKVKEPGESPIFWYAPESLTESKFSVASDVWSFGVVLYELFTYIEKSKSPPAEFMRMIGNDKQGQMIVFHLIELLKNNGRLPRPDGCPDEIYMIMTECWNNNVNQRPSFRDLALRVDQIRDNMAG

`CC[C@H](N)COc1ccc2ncc(-c3cccc(OC(F)(F)F)c3)n2n1` [Compound 7-19, (S)-1-(3-(3-(trifluoromethoxy)phenyl)imidazo[1,2-b]pyridazin-6-yloxy)butan-2-amine]: the values for the 50% inhibitory concentration (IC50) on Pim-1 kinase (values in nM) and in the test on K562 Cells (setting [2]) were 293 nM and 5.84 µM, respectively. The EC50 (in general, the midpoint of the concentration-response curve) in test [1] is 0.635 µM.

As to `CN1CCC(CNc2ccc3ncc(-c4cccc(OC(F)(F)F)c4)n3n2)CC1` [Compound 7-29], at Able, the “activity against Able” value is “no significant activity”. The “activity against Plk3” value at Plk3 is recorded as “no significant activity”. Also, the “activity against c-Kit” value at c-Kit is “no significant activity”. At CDK1, the “activity against CDK1” value is recorded as “no significant activity”. The “activity against Jak2” value at Jak2 was “no significant activity”. Moreover, the IC50 (in general, the point on the concentration scale where inhibition reaches its midpoint) with PC-3 Cells came out at 4.83 µM; in the test on K562 Cells (Homo sapiens, Table IX (results)) it was 2.29 µM. In [1], the EC50 is 0.0079 µM. In addition, on EGFR, the “activity against EGFR” value is “no significant activity”. Moreover, the “activity against CDK2” value on CDK2 is recorded as “no significant activity”. The “activity against Aurora-A” value on Aurora-A is on record as “no significant activity”. For the same compound, on Nek2, the “activity against Nek2” value is recorded as “no significant activity”.

Turning to `FC(F)(F)Oc1cccc(-c2cnc3ccc(NCCN4CCCC4)nn23)c1` [Compound 7-30, N-(2-(pyrrolidin-1-yl)ethyl)-3-(3-(trifluoromethoxy)phenyl)imidazol[1,2-b]pyridazin-6-amine], the concentration for half-maximal inhibition (IC50) on Pim-1 kinase (values in nM) was 761 nM; in the test with PC-3 Cells it was 9.26 µM; in the test on K562 Cells (setting [2]) it was 9.14 µM.

In the case of `CC[C@@H](CO)Nc1ccc2ncc(-c3cccc(OC(F)(F)F)c3)n2n1` [Compound 7-32, (S)-2-(3-(3-(trifluoromethoxy)phenyl)imidazo[1,2-b]pyridazin-6-ylamino)butan-1-ol], the IC50 was found to be 95 nM on Pim-1 kinase (values in nM); 1550 nM at Pim-1 kinase (values in uM); 29 µM in the test on PC-3 Cells; 25.3 µM with K562 Cells (setting [2]); 20 µM in the test with K562 Cells (Table IX (results)).

`CN1CCC(COc2ccc3ncc(-c4cccc(OC(F)(F)F)c4)n3n2)CC1` [Compound 7-33, 6-((1-methylpiperidin-4-yl)methoxy)-3-(3-(trifluoromethoxy)phenyl)imidazo[1,2-b]pyridazine]: the IC50 at Pim-1 kinase (values in nM) was 405 nM and 282 nM; in the test on PC-3 Cells it was 14.4 µM; with K562 Cells (setting [2]), 5.99 µM.

For the compound `Cc1cc2ncc(-c3cccc(OC(F)(F)F)c3)n2nc1OCC1CCN(C)CC1` [Compound 7-34, 7-methyl-6-((1-methylpiperidin-4-yl)methoxy)-3-(3(trifluoromethoxy)phenyl) imidazo[1,2-b]pyridazine], the IC50 at Pim-1 kinase (values in nM) was found to be 272 nM; with PC-3 Cells it was 7.21 µM; in the test with K562 Cells (setting [2]), 1.73 µM.

Consider `O=C(C1CC1)N1CCC(CNc2ccc3ncc(-c4cccc(OC(F)(F)F)c4)n3n2)CC1` [Compound 7-36, Cyclopropyl(4-((3-(3-(trifluoromethoxy)phenyl)imidazo[1,2-b]pyridazin-6-ylamino)methyl)piperidin-1-yl)methanone], for which the IC50 on Pim-1 kinase (values in nM) came to 73 nM; with PC-3 Cells, 33.3 µM; with K562 Cells (setting [2]) it was 6.91 µM.

As for `Cc1cc2ncc(-c3cccc(OC(F)(F)F)c3)n2nc1NCC1CCN(C)CC1` [Compound 7-37, 7-Methyl-N-((1-methylpiperidin-4-yl)methyl)-3-(3-(trifluoromethoxy)phenyl)-imidazo[1,2-b]pyridazin-6-amine], the IC50 was 13 nM at Pim-1 kinase (values in nM), 8.95 µM with PC-3 Cells and 3.89 µM with K562 Cells (setting [2]).

For the compound `CCN1CCC(CNc2ccc3ncc(-c4cc(OC(F)(F)F)ccc4O)n3n2)CC1` [Compound 7-47, N-((1-ethylpiperidin-4-yl)methyl)-3-(2-hydroxy-5-(trifluoromethoxy)phenyl)-imidazo[1,2-b]pyridazin-6-amine], the IC50 is 310 nM on Pim-1 kinase (values in nM), 57.4 µM with PC-3 Cells and 11.3 µM in the test with K562 Cells (setting [2]).
